Reference: PubChem BioAssay (NCI)
Values joined by “and” are separate entries in the source; they are usually repeats but may differ in a detail not shown here. Identical values can stand only once.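 Values below derive from 48-hour exposures of cells grown in 96-well plates, with endpoints linearly interpolated between the two concentrations bracketing the appropriate inhibition level. The concentration for 50% growth inhibition is given as GI50. The concentration for full growth arrest is given as TGI.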

How the values were obtained:
Assay in all cases: growth of human tumour cells (NCI), 48 h
EKVX NSCLC = test system: EKVX NSCLC
MDA-MB-231 breast = test system: MDA-MB-231 breast
OVCAR-3 ovarian = test system: OVCAR-3 ovarian
T-47D breast = test system: T-47D breast
OVCAR-4 ovarian = test system: OVCAR-4 ovarian
CCRF-CEM leukemia = test system: CCRF-CEM leukemia
UACC-62 melanoma = test system: UACC-62 melanoma
KM12 colon = test system: KM12 colon
MDA-MB-435 = test system: MDA-MB-435
IGROV1 ovarian = test system: IGROV1 ovarian

| Structure (SMILES) | GI50 (EKVX NSCLC) | TGI (EKVX NSCLC) | GI50 (MDA-MB-231 breast) | TGI (MDA-MB-231 breast) | GI50 (OVCAR-3 ovarian) | TGI (OVCAR-3 ovarian) | GI50 (T-47D breast) | TGI (T-47D breast) | GI50 (OVCAR-4 ovarian) | TGI (OVCAR-4 ovarian) | GI50 (CCRF-CEM leukemia) | TGI (CCRF-CEM leukemia) | GI50 (UACC-62 melanoma) | TGI (UACC-62 melanoma) | GI50 (KM12 colon) | TGI (KM12 colon) | GI50 (MDA-MB-435) | TGI (MDA-MB-435) | GI50 (IGROV1 ovarian) | TGI (IGROV1 ovarian) |
| --- | --- | --- | --- | --- | --- | --- | --- | --- | --- | --- | --- | --- | --- | --- | --- | --- | --- | --- | --- | --- |
| Cc1ccc(C2C3Cc4ccccc4C3=NN2c2ccc(S(=O)(=O)NC(=O)Nc3ccccc3)cc2)cc1 (stereo not drawn) | 13.7 µM | 33 µM | 10.8 µM | 22.7 µM | 14.7 µM | 36.5 µM | 36.8 µM | > 100 µM | 17.9 µM | 50 µM | 17.8 µM | 46.6 µM | 11.2 µM | 23.2 µM | 17.3 µM | 43.2 µM | 18.7 µM | 46.2 µM | 1.15 µM | 19.7 µM |
| CCOC(=O)CCSC1=CC(=O)c2nc3ccccc3c3ccnc1c23 | 29.4 µM | 76.4 µM | 16.7 µM | 41.6 µM | 12.6 µM | 37 µM | 24.3 µM | 76 µM | 15.2 µM | 31.7 µM | 3.44 µM | > 100 µM | 15.8 µM | 31.4 µM | 15 µM | 34.1 µM | 17.8 µM | 37.7 µM | 22.7 µM | > 100 µM |
| C/C(=N\NC(=S)N1CCN(c2ccccn2)CC1)c1cccc2cccnc12 | – | > 45.3 µM | – | > 64.6 µM | – | > 29 µM | – | > 87.6 µM | – | > 100 µM | – | > 42.8 µM | – | 27.8 µM | – | > 100 µM | – | > 100 µM | – | > 100 µM |
| C[C@@H](Oc1cc(-c2cnn(C3CCNCC3)c2)cnc1N)c1c(Cl)cc(F)cc1Cl | 3.72 µM | 17.3 µM | 1.61 µM | 5.22 µM | 4.13 µM | 13.5 µM | 1.74 µM | 4.58 µM | 2.86 µM | 10.8 µM | 0.504 µM | 9.88 µM | 1.61 µM | 3.65 µM | 0.0496 µM | 2.93 µM | 0.749 µM | 9.42 µM | 3.31 µM | 16.7 µM |
| C=CCN1C(=O)[C@]2(SC1=S)[C@H](c1cccc(Cl)c1)CN(C)[C@]21C(=O)NC2C=CC(Cl)=C[C@H]21 (stereo partly drawn) | 4.54 µM | 24.6 µM | 2 µM | 8.72 µM | 3.43 µM | 14.2 µM | 2.84 µM | 14.7 µM | 2.13 µM | 10.2 µM | 3.25 µM | 11.6 µM | 3.7 µM | 19.1 µM | 1.99 µM | 6.35 µM | 5.9 µM | 21.5 µM | 2.98 µM | 16.5 µM |
| Cc1cc(OCc2nn(CN3CCN(C)CC3)c(=S)n2/N=C/c2ccc(F)cc2)ccc1Cl | 20.4 µM | 43 µM | 18.5 µM | 36 µM | 17.4 µM | 34.3 µM | 17 µM | 39.7 µM | 6.86 µM | 22 µM | 19.8 µM | 43.4 µM | 17.4 µM | 31.6 µM | 17.9 µM | 37.5 µM | 18 µM | 36.2 µM | 16.2 µM | 30.5 µM |
| COc1cc(/C=C/c2ccnc3ccccc23)cc(OC)c1OC | 6.27 µM | > 100 µM | 2.8 µM | 9.42 µM and 46 µM | 1.67 µM | 14.6 µM and 4.71 µM | 6.58 µM | 80.4 µM and > 100 µM | 4.41 µM | 45.5 µM and > 100 µM | 3.64 µM | – | – | 30.7 µM and > 100 µM | 1.34 µM | 15.9 µM and 11.1 µM | 0.355 µM | 1.87 µM and 1.85 µM | 4.94 µM | 35 µM and > 100 µM |
| C=C1C(=O)O[C@H]2[C@H]1CC/C(COC(=O)N[C@H](Cc1c[nH]c3ccccc13)C(=O)OC)=C\CC[C@@]1(C)O[C@@H]21 | 1.8 µM | 5.66 µM | 2 µM | 5.59 µM | 1.44 µM | 3.07 µM | 1.94 µM | 5.06 µM | 6.44 µM | 20.4 µM | 1.78 µM | 6.69 µM | 1.88 µM | 4.4 µM | 11.8 µM | 28.6 µM | 2.52 µM | 10 µM | 1.85 µM | 5.35 µM |
| O=C(O)c1[nH]c2c([N+](=O)[O-])cc([N+](=O)[O-])cc2c1C(=O)O | – | > 100 µM | – | > 100 µM | – | > 100 µM | – | > 100 µM | – | > 100 µM | – | > 100 µM | – | > 100 µM | – | > 100 µM | – | > 100 µM | – | > 100 µM |
| c1ccc(/C(=N\Nc2nc3ccccc3s2)c2ccccn2)cc1 | – | 15.4 µM | – | > 100 µM | – | 1.72 µM | – | 52.5 µM | – | > 100 µM | – | 1.07 µM | – | 27.5 µM | – | > 100 µM | – | > 100 µM | – | > 48.2 µM |
| OCC1OC(n2cnc3c(NCc4ccccc4O)ncnc32)C(O)C1O (stereo not drawn) | 1.03 µM | > 100 µM | 0.0769 µM | 3.28 µM | 0.388 µM | 2.08 µM | 0.345 µM | 4.87 µM | 0.294 µM | 8.14 µM | 0.274 µM | 33.6 µM | 1.27 µM | 24.2 µM | 5.23 µM | > 100 µM | 0.184 µM | 3.2 µM | 0.649 µM | 10.5 µM |
| O=C(COc1cccc(/C=C2\Oc3ccc4ccccc4c3C2=O)c1)c1ccc([N+](=O)[O-])cc1 | > 100 µM | > 100 µM | 18.8 µM | 68.8 µM | 14.9 µM | 28 µM | 12.6 µM | 38.3 µM | 20 µM | 60.3 µM | 3.96 µM | 17.4 µM | 14.1 µM | 30.4 µM | 11.9 µM | 26.2 µM | 28.9 µM | > 100 µM | 6.76 µM | 40.7 µM |
| O=C(CCl)Nc1ccc(Cc2ccc(NC(=O)CCl)cc2)cc1 | 2.23 µM | 5.78 µM | 1.54 µM | 5.06 µM | 1.17 µM | 2.48 µM | 1.65 µM | 4.67 µM | 1.42 µM | 3.44 µM | 0.47 µM | 3.01 µM | 1.53 µM | 3.34 µM | 1.57 µM | 3.17 µM | 1.76 µM | 4.31 µM | 1.43 µM | 4.06 µM |
| O=c1[nH]c(=O)n(C2OC(CO)C(O)C2O)cc1F (stereo not drawn) | – | > 93.8 µM | – | > 100 µM | 0.0231 µM | 10.9 µM | – | > 100 µM | – | 17.7 µM | 0.0369 µM | > 100 µM | 0.0515 µM | 7.56 µM | 0.0267 µM | 51.9 µM | 0.0445 µM | > 77.9 µM | – | 3.12 µM |
